From the NIST ThermoML archive (doi:10.1016/j.jct.2008.10.007)
± gives the expanded uncertainty stated by the source.

Key:
[1] = xn = mol fraction of the nth substance listed; details: 298.15 K, 101 kPa, Liquid, Vibrating tube method
[2] = excess molar enthalpy (molar enthalpy of mixing); xn = mol fraction of the nth substance listed; details: 298.15 K, 101 kPa, Liquid, Calvet calorimetry

ClCCCCCl [1,4-dichlorobutane] + CCCOC(=O)CC
mass density ([1]; x2 = 0.0527): 1118.03 ± 6.2 kg/m3
mass density ([1]; x2 = 0.1038): 1102.83 ± 5.5 kg/m3
mass density ([1]; x2 = 0.1547): 1087.98 ± 4.9 kg/m3
mass density ([1]; x2 = 0.2085): 1072.56 ± 4.3 kg/m3
mass density ([1]; x2 = 0.2627): 1057.37 ± 3.7 kg/m3
mass density ([1]; x2 = 0.3186): 1041.98 ± 3.2 kg/m3
mass density ([1]; x2 = 0.3736): 1027.16 ± 2.7 kg/m3
mass density ([1]; x2 = 0.49): 996.65 ± 1.9 kg/m3
mass density ([1]; x2 = 0.5485): 981.77 ± 1.6 kg/m3
mass density ([1]; x2 = 0.612): 965.97 ± 1.3 kg/m3
mass density ([1]; x2 = 0.6735): 950.93 ± 1 kg/m3
mass density ([1]; x2 = 0.7351): 936.2 ± 0.81 kg/m3
mass density ([1]; x2 = 0.8004): 920.88 ± 0.61 kg/m3
mass density ([1]; x2 = 0.866): 905.76 ± 0.46 kg/m3
mass density ([1]; x2 = 0.9333): 890.53 ± 0.33 kg/m3
excess molar enthalpy ([2]; x2 = 0.0573): -0.00621 ± 0.000239 kcal/mol
excess molar enthalpy ([2]; x2 = 0.133): -0.0151 ± 0.000478 kcal/mol
excess molar enthalpy ([2]; x2 = 0.2168): -0.0308 ± 0.000717 kcal/mol
excess molar enthalpy ([2]; x2 = 0.3006): -0.0461 ± 0.000956 kcal/mol
excess molar enthalpy ([2]; x2 = 0.381): -0.0598 ± 0.00143 kcal/mol
excess molar enthalpy ([2]; x2 = 0.4539): -0.071 ± 0.00167 kcal/mol
excess molar enthalpy ([2]; x2 = 0.5117): -0.0743 ± 0.00167 kcal/mol
excess molar enthalpy ([2]; x2 = 0.5559): -0.0743 ± 0.00167 kcal/mol
excess molar enthalpy ([2]; x2 = 0.6419): -0.071 ± 0.00167 kcal/mol
excess molar enthalpy ([2]; x2 = 0.7366): -0.0621 ± 0.00143 kcal/mol
excess molar enthalpy ([2]; x2 = 0.8338): -0.0447 ± 0.000956 kcal/mol
excess molar enthalpy ([2]; x2 = 0.9261): -0.0227 ± 0.000478 kcal/mol

ClCCCCl [1,3-dichloropropane] + CCCOC(C)=O
mass density ([1]; x2 = 0.051): 1160.75 ± 6.7 kg/m3
mass density ([1]; x2 = 0.1013): 1143.09 ± 6 kg/m3
mass density ([1]; x2 = 0.1519): 1125.74 ± 5.3 kg/m3
mass density ([1]; x2 = 0.2062): 1107.55 ± 4.6 kg/m3
mass density ([1]; x2 = 0.2602): 1089.75 ± 4 kg/m3
mass density ([1]; x2 = 0.314): 1072.51 ± 3.4 kg/m3
mass density ([1]; x2 = 0.4262): 1037.75 ± 2.5 kg/m3
mass density ([1]; x2 = 0.5391): 1004.31 ± 1.7 kg/m3
mass density ([1]; x2 = 0.5986): 987.32 ± 1.4 kg/m3
mass density ([1]; x2 = 0.6602): 970.1 ± 1.1 kg/m3
mass density ([1]; x2 = 0.7227): 953.06 ± 0.87 kg/m3
mass density ([1]; x2 = 0.758): 943.63 ± 0.75 kg/m3
mass density ([1]; x2 = 0.7981): 933.1 ± 0.63 kg/m3
mass density ([1]; x2 = 0.8553): 918.23 ± 0.48 kg/m3
mass density ([1]; x2 = 0.934): 898.35 ± 0.33 kg/m3
excess molar enthalpy ([2]; x2 = 0.054): -0.00908 ± 0.000239 kcal/mol
excess molar enthalpy ([2]; x2 = 0.1279): -0.0206 ± 0.000478 kcal/mol
excess molar enthalpy ([2]; x2 = 0.2091): -0.0349 ± 0.000717 kcal/mol
excess molar enthalpy ([2]; x2 = 0.2781): -0.049 ± 0.0012 kcal/mol
excess molar enthalpy ([2]; x2 = 0.3637): -0.0624 ± 0.00143 kcal/mol
excess molar enthalpy ([2]; x2 = 0.4401): -0.0741 ± 0.00167 kcal/mol
excess molar enthalpy ([2]; x2 = 0.5067): -0.0813 ± 0.00191 kcal/mol
excess molar enthalpy ([2]; x2 = 0.5223): -0.0829 ± 0.00191 kcal/mol
excess molar enthalpy ([2]; x2 = 0.572): -0.0837 ± 0.00191 kcal/mol
excess molar enthalpy ([2]; x2 = 0.6457): -0.0779 ± 0.00167 kcal/mol
excess molar enthalpy ([2]; x2 = 0.738): -0.0679 ± 0.00143 kcal/mol
excess molar enthalpy ([2]; x2 = 0.8364): -0.0488 ± 0.0012 kcal/mol
excess molar enthalpy ([2]; x2 = 0.931): -0.0237 ± 0.000717 kcal/mol

CCCOC(=O)CC [propyl propanoate] + ClCCCCCl
mass density ([1]; x1 = 1): 875.61 ± 0.23 kg/m3

CCCOC(=O)CCC [propyl butanoate] + ClCCCCl
mass density ([1]; x1 = 0.0366): 1161.49 ± 6.9 kg/m3
mass density ([1]; x1 = 0.0766): 1143.1 ± 6.2 kg/m3
mass density ([1]; x1 = 0.1186): 1124.61 ± 5.6 kg/m3
mass density ([1]; x1 = 0.1603): 1107.03 ± 5 kg/m3
mass density ([1]; x1 = 0.2067): 1088.41 ± 4.4 kg/m3
mass density ([1]; x1 = 0.2552): 1069.83 ± 3.9 kg/m3
mass density ([1]; x1 = 0.3066): 1051.21 ± 3.3 kg/m3
mass density ([1]; x1 = 0.3595): 1032.94 ± 2.9 kg/m3
mass density ([1]; x1 = 0.4152): 1014.72 ± 2.4 kg/m3
mass density ([1]; x1 = 0.5357): 978.32 ± 1.6 kg/m3
mass density ([1]; x1 = 0.5999): 960.48 ± 1.3 kg/m3
mass density ([1]; x1 = 0.6691): 942.33 ± 1 kg/m3
mass density ([1]; x1 = 0.7439): 923.8 ± 0.77 kg/m3
mass density ([1]; x1 = 0.8228): 905.44 ± 0.55 kg/m3
mass density ([1]; x1 = 0.9064): 887.12 ± 0.37 kg/m3
mass density ([1]; x1 = 1): 867.9 ± 0.23 kg/m3
excess molar enthalpy ([2]; x1 = 0.0386): -0.00478 ± 0.000239 kcal/mol
excess molar enthalpy ([2]; x1 = 0.0938): -0.0127 ± 0.000478 kcal/mol
excess molar enthalpy ([2]; x1 = 0.159): -0.0229 ± 0.000478 kcal/mol
excess molar enthalpy ([2]; x1 = 0.2273): -0.0375 ± 0.000956 kcal/mol
excess molar enthalpy ([2]; x1 = 0.2973): -0.0507 ± 0.0012 kcal/mol
excess molar enthalpy ([2]; x1 = 0.3649): -0.0626 ± 0.00143 kcal/mol
excess molar enthalpy ([2]; x1 = 0.4253): -0.0712 ± 0.00167 kcal/mol
excess molar enthalpy ([2]; x1 = 0.5121): -0.081 ± 0.00167 kcal/mol
excess molar enthalpy ([2]; x1 = 0.5732): -0.0798 ± 0.00167 kcal/mol
excess molar enthalpy ([2]; x1 = 0.6582): -0.0753 ± 0.00167 kcal/mol
excess molar enthalpy ([2]; x1 = 0.748): -0.0652 ± 0.00143 kcal/mol
excess molar enthalpy ([2]; x1 = 0.8421): -0.0464 ± 0.000956 kcal/mol
excess molar enthalpy ([2]; x1 = 0.9299): -0.0234 ± 0.000717 kcal/mol
